How the values were obtained:
Format in all cases: functional
MOLT-4 = experiment: Growth inhibition of human MOLT-4 cells incubated for 48 hrs by sulforhodamine B assay
A549 = experiment: Growth inhibition of human A549/ATCC cells incubated for 48 hrs by sulforhodamine B assay
HOP-62 = experiment: Growth inhibition of human HOP-62 cells incubated for 48 hrs by sulforhodamine B assay
HOP-92 = experiment: Growth inhibition of human HOP-92 cells incubated for 48 hrs by sulforhodamine B assay
NCI-H23 = experiment: Growth inhibition of human NCI-H23 cells incubated for 48 hrs by sulforhodamine B assay
NCI-H322M = experiment: Growth inhibition of human NCI-H322M cells incubated for 48 hrs by sulforhodamine B assay
HCC 2998 = experiment: Growth inhibition of human HCC 2998 cells incubated for 48 hrs by sulforhodamine B assay
KM12 = experiment: Growth inhibition of human KM12 cells incubated for 48 hrs by sulforhodamine B assay
SF-295 = experiment: Growth inhibition of human SF-295 cells incubated for 48 hrs by sulforhodamine B assay
U-251 = experiment: Growth inhibition of human U-251 cells incubated for 48 hrs by sulforhodamine B assay
LOX IMVI = experiment: Growth inhibition of human LOX IMVI cells incubated for 48 hrs by sulforhodamine B assay
Malme-3M = experiment: Growth inhibition of human Malme-3M cells incubated for 48 hrs by sulforhodamine B assay
M14 = experiment: Growth inhibition of human M14 cells incubated for 48 hrs by sulforhodamine B assay
MDA-MB-435 = experiment: Growth inhibition of human MDA-MB-435 cells incubated for 48 hrs by sulforhodamine B assay
SK-MEL-2 = experiment: Growth inhibition of human SK-MEL-2 cells incubated for 48 hrs by sulforhodamine B assay
SK-MEL-28 = experiment: Growth inhibition of human SK-MEL-28 cells incubated for 48 hrs by sulforhodamine B assay
UACC-257 = experiment: Growth inhibition of human UACC-257 cells incubated for 48 hrs by sulforhodamine B assay
IGROV-1 = experiment: Growth inhibition of human IGROV-1 cells incubated for 48 hrs by sulforhodamine B assay
OVCAR-3 = experiment: Growth inhibition of human OVCAR-3 cells incubated for 48 hrs by sulforhodamine B assay
OVCAR-4 = experiment: Growth inhibition of human OVCAR-4 cells incubated for 48 hrs by sulforhodamine B assay
OVCAR-5 = experiment: Growth inhibition of human OVCAR-5 cells incubated for 48 hrs by sulforhodamine B assay
OVCAR-8 = experiment: Growth inhibition of human OVCAR-8 cells incubated for 48 hrs by sulforhodamine B assay
SK-OV-3 = experiment: Growth inhibition of human SK-OV-3 cells incubated for 48 hrs by sulforhodamine B assay
ACHN = experiment: Growth inhibition of human ACHN cells incubated for 48 hrs by sulforhodamine B assay
CAKI-1 = experiment: Growth inhibition of human CAKI-1 cells incubated for 48 hrs by sulforhodamine B assay
RXF 393 = experiment: Growth inhibition of human RXF 393 cells incubated for 48 hrs by sulforhodamine B assay
TK-10 = experiment: Growth inhibition of human TK-10 cells incubated for 48 hrs by sulforhodamine B assay
UO-31 = experiment: Growth inhibition of human UO-31 cells incubated for 48 hrs by sulforhodamine B assay
DU-145 = experiment: Growth inhibition of human DU-145 cells incubated for 48 hrs by sulforhodamine B assay
MCF7 = experiment: Growth inhibition of human MCF7 cells incubated for 48 hrs by sulforhodamine B assay
MDA-MB-231 = experiment: Growth inhibition of human MDA-MB-231 cells incubated for 48 hrs by sulforhodamine B assay
Hs-578T = experiment: Growth inhibition of human Hs-578T cells incubated for 48 hrs by sulforhodamine B assay
BT-549 = experiment: Growth inhibition of human BT-549 cells incubated for 48 hrs by sulforhodamine B assay
T47D = experiment: Growth inhibition of human T47D cells incubated for 48 hrs by sulforhodamine B assay
MDA-MB-468 = experiment: Growth inhibition of human MDA-MB-468 cells incubated for 48 hrs by sulforhodamine B assay
[1] = read-out: LC50 (the source's name)

What does the source list for O=C(CNc1ccc(Cl)cc1)Nc1ccc(-c2nc3ccccc3s2)cc1?
GI50 (MOLT-4): 1.25 µM; LC50 (MOLT-4): > 100 µM; TGI (MOLT-4): 7.09 µM; GI50 (A549): 3.31 µM; TGI (A549): 13.7 µM; CC50 (A549; [1]): > 100 µM; GI50 (HOP-62): 3.34 µM; TGI (HOP-62): 12.9 µM; CC50 (HOP-62; [1]): > 100 µM; GI50 (HOP-92): 2.4 µM; LC50 (concentration killing 50% of cells) (HOP-92): 37.8 µM; TGI (HOP-92): 8.11 µM; GI50 (NCI-H23): 2.04 µM; LC50 (lethal concentration 50%) (NCI-H23): 21.6 µM; TGI (NCI-H23): 4.7 µM; GI50 (NCI-H322M): 2 µM; LC50 (concentration killing 50% of cells) (NCI-H322M): 12.3 µM; TGI (NCI-H322M): 4.65 µM; GI50 (HCC 2998): 1.9 µM; TGI (HCC 2998): 3.54 µM; CC50 (HCC 2998; [1]): 6.58 µM; GI50 (KM12): 3.24 µM; LC50 (concentration killing 50% of cells) (KM12): 33.5 µM; TGI (KM12): 11.1 µM; GI50 (SF-295): 1.28 µM; LC50 (concentration causing 50% net cell kill) (SF-295): 61.8 µM; TGI (SF-295): 28.1 µM; GI50 (U-251): 1.94 µM; LC50 (lethal concentration 50) (U-251): 7.84 µM; TGI (U-251): 3.9 µM; GI50 (LOX IMVI): 1.29 µM; LC50 (LOX IMVI): 5.74 µM; TGI (LOX IMVI): 2.72 µM; GI50 (Malme-3M): 1.98 µM; TGI (Malme-3M): 4.22 µM; CC50 (Malme-3M; [1]): 8.99 µM; GI50 (M14): 1.78 µM; TGI (M14): 3.84 µM; CC50 (M14; [1]): 8.28 µM; GI50 (MDA-MB-435): 2.66 µM; LC50 (MDA-MB-435): 42.7 µM; TGI (MDA-MB-435): 11.1 µM; GI50 (SK-MEL-2): 6.19 µM; LC50 (lethal concentration, 50% cell kill) (SK-MEL-2): > 100 µM; TGI (SK-MEL-2): 27.9 µM; GI50 (SK-MEL-28): 2.03 µM; LC50 (SK-MEL-28): 9.72 µM; TGI (SK-MEL-28): 4.44 µM; GI50 (UACC-257): 3.12 µM; LC50 (UACC-257): 57.7 µM; TGI (UACC-257): 11.1 µM; GI50 (IGROV-1): 1.9 µM; TGI (IGROV-1): 4.27 µM; CC50 (IGROV-1; [1]): 9.59 µM; GI50 (OVCAR-3): 1.85 µM; LC50 (OVCAR-3): 5.88 µM; TGI (OVCAR-3): 3.3 µM; GI50 (OVCAR-4): 2.24 µM; LC50 (OVCAR-4): 42.3 µM; TGI (OVCAR-4): 8.49 µM; GI50 (OVCAR-5): 2.26 µM; LC50 (concentration killing 50% of cells) (OVCAR-5): 23.9 µM; TGI (OVCAR-5): 5.8 µM; GI50 (OVCAR-8): 2.56 µM; LC50 (OVCAR-8): > 100 µM; TGI (OVCAR-8): 7.06 µM; GI50 (SK-OV-3): 4.57 µM; LC50 (concentration killing 50% of cells) (SK-OV-3): > 100 µM; TGI (SK-OV-3): 61.8 µM; GI50 (ACHN): 2.31 µM; LC50 (ACHN): 18.2 µM; TGI (ACHN): 5.57 µM; GI50 (CAKI-1): 2.74 µM; LC50 (concentration killing 50% of cells) (CAKI-1): 34.4 µM; TGI (CAKI-1): 10.5 µM; GI50 (RXF 393): 1.66 µM; LC50 (concentration killing 50% of cells) (RXF 393): 7.68 µM; TGI (RXF 393): 3.57 µM; GI50 (TK-10): 2.2 µM; LC50 (TK-10): 21.5 µM; TGI (TK-10): 5.84 µM; GI50 (UO-31): 1.96 µM; LC50 (concentration killing 50% of cells) (UO-31): 40.3 µM; TGI (UO-31): 9.79 µM; GI50 (DU-145): 3.34 µM; LC50 (concentration killing 50% of cells) (DU-145): 32.1 µM; TGI (DU-145): 10.3 µM; GI50 (MCF7): 0.0325 µM; LC50 (MCF7): > 100 µM; TGI (MCF7): 2.5 µM; GI50 (MDA-MB-231): 2.86 µM; LC50 (concentration causing 50% cell kill) (MDA-MB-231): > 100 µM; TGI (MDA-MB-231): 10.3 µM; GI50 (Hs-578T): 4.41 µM; LC50 (Hs-578T): > 100 µM; TGI (Hs-578T): 37.7 µM; GI50 (BT-549): 1.57 µM; LC50 (concentration killing 50% of cells) (BT-549): 9.1 µM; TGI (BT-549): 3.78 µM; GI50 (T47D): 1.86 µM; LC50 (concentration killing 50% of cells) (T47D): > 100 µM; TGI (T47D): 5.94 µM; GI50 (MDA-MB-468): 0.0238 µM; TGI (MDA-MB-468): 0.353 µM; CC50 (MDA-MB-468; [1]): 6.19 µM
